# Values quoted from earlier work in patent US11439593B2, “Composition for treating onychomycosis” (NCP NewCare Products GmbH, priority 2017, dated 2022).
# Like-named read-outs stand apart in the source and are kept apart here.
SMILES,stability in acidic environment (pH of about 3),stability in acidic environment (pH of about 5)
Cc1cc(C2CCCCC2)n(O)c(=O)c1 [ciclopirox],stable,–
Clc1ccc(COC(Cn2ccnc2)c2ccc(Cl)cc2Cl)c(Cl)c1 (centres unmarked) [miconazole],stable,–
c1ccc(-c2ccc(C(c3ccccc3)n3ccnc3)cc2)cc1 (centres unmarked) [bifonazole],–,stable
CN(C/C=C/C#CC(C)(C)C)Cc1cccc2ccccc12 [terbinafine],stable,–
Clc1ccccc1C(c1ccccc1)(c1ccccc1)n1ccnc1 [clotrimazole],–,stable
